What was measured:
[1] = system: Candida albicans TA; experiment: Protective effect against Candida albicans infection in mice (oral, ED50 from survival rate); assay type: in vivo; conditions: Crj: CDF1 mice inoculated i.v. with minimum lethal dose of Candida albicans TA, single oral dose immediately after infection as 30% HPCD solution, Reed and Muench method from survival rate 7 days after infection; for ED50: 168 h
Experimental: Test Method: Five-week-old Crj: CDF1 mice were inoculated with the minimum lethal dose of Candida albicans TA intravenously. The test compounds were administered orally once immediately after infection as a 30% HPCD (hydroxypropyl-β-cyclodextrin) solution. The activity was expressed in terms of ED50 value calculated by the Reed and Muench method from the survival rate 7 days after infection.

C[C@@H](n1ncn(-c2ccc(-n3cccn3)cc2)c1=O)[C@](O)(Cn1cncn1)c1ccc(F)cc1F [Compound 19, 2-[(1R,2R)-2-(2,4-difluorophenyl)-2-hydroxy-1-methyl-3-(1H-1,2,4-triazol-1-yl)propyl]-4-[4-(1H-1-pyrazolyl)phenyl]-3(2H,4H)-1,2,4-triazolone]
ED50 [1]: 0.39 mg/kg

C[C@@H](N1CCN(c2ccc(-n3nccn3)cc2)C1=O)[C@](O)(Cn1cncn1)c1ccccc1F [Compound 35, 1-[(1R,2R)-2-(2-fluorophenyl)-2-hydroxy-1-methyl-3-(1H-1,2,4-triazol-1-yl)propyl]-3-[4-(2H-1,2,3-triazol-2-yl)phenyl]-2-imidazolidinone]
melting point: 178 to 179 °C
ED50 [1]: 0.71 mg/kg

C[C@@H](n1ccn(-c2ccc(-n3nccn3)cc2)c1=O)[C@](O)(Cn1cncn1)c1ccc(F)cc1F [Compound 13, 1-[(1R,2R)-2-(2,4-difluorophenyl)-2-hydroxy-1-methyl-3-(1H-1,2,4-triazol-1-yl)propyl]-3-[4-(2H-1,2,3-triazol-2-yl)phenyl]-2(1H,3H)-imidazolone]
melting point: 182 to 185 °C
ED50 [1]: 0.18 mg/kg

C[C@@H](n1ccn(-c2ccc(-n3ccnn3)cc2)c1=O)[C@](O)(Cn1cncn1)c1ccc(F)cc1F [Compound 11, 1-[(1R,2R)-2-(2,4-difluorophenyl)-2-hydroxy-1-methyl-3-(1H-1,2,4-triazol-1-yl)propyl]-3-[4-(1H-1,2,3-triazol-1-yl)phenyl]-2(1H,3H)-imidazolone]
melting point: 178 to 181 °C
ED50 [1]: 0.45 mg/kg

C[C@@H](n1ncn(-c2ccc(-n3cncn3)cc2)c1=O)[C@](O)(Cn1cncn1)c1ccc(F)cc1F [Compound 5, 2-[(1R,2R)-2-(2,4-difluorophenyl)-2-hydroxy-1-methyl-3-(1H-1,2,4-triazol-1-yl)propyl]-4-[4-(1H-1,2,4-triazol-1-yl)phenyl]-3(2H,4H)-1,2,4-triazolone]
melting point: 182 to 184 °C
ED50 [1]: 0.22 mg/kg

1-[((1R,2R)-2-(2,4-difluorophenyl)-2-hydroxy-1-methyl-3-(1H-1,2,4-triazol-1-yl)propyl]-3-[4-(1H-1,2,4-triazol-1-yl)phenyl]-2(1H,3H)-imidazolone [Compound 9]
ED50 (mg/kg) PO [1]: 0.16 mg/kg

C[C@@H](N1CCN(c2ccc(-n3cncn3)cc2)C1=O)[C@](O)(Cn1cncn1)c1ccccc1F [Compound 39, 1-[(1R,2R)-2-(2-fluorophenyl)-2-hydroxy-1-methyl-3-(1H-1,2,4-triazol-1-yl)propyl]-3-[4-(1H-1,2,4-triazol-1-yl)phenyl]-2-imidazolidinone]
ED50 [1]: 0.5 mg/kg

C[C@@H](n1ncn(-c2ccc(-n3ncnn3)cc2)c1=O)[C@](O)(Cn1cncn1)c1ccc(F)cc1F [Compound 25, 2-[(1R,2R)-2-(2,4-difluorophenyl)-2-hydroxy-1-methyl-3-(1H-1,2,4-triazol-1-yl)propyl]-4-[4-(2H-2-tetrazolyl)phenyl]-3(2H,4H)-1,2,4-triazolone]
ED50 [1]: 0.088 mg/kg

C[C@@H](n1ccn(-c2ccc(-n3cnnn3)cc2)c1=O)[C@](O)(Cn1cncn1)c1ccc(F)cc1F [Compound 42, 1-[(1R,2R)-2-(2,4-difluorophenyl)-2-hydroxy-1-methyl-3-(1H-1,2,4-triazol-1-yl)propyl]-3-[4-(1H-1-tetrazolyl)phenyl]-2(1H,3H)-imidazolone]
ED50 [1]: 0.22 mg/kg

C[C@@H](N1CCN(c2ccc(-n3ncnn3)cc2)C1=O)[C@](O)(Cn1cncn1)c1ccccc1F [Compound 41, 1-[(1R,2R)-2-(2-fluorophenyl)-2-hydroxy-1-methyl-3-(1H-1,2,4-triazol-1-yl)propyl]-3-[4-(2H-2-tetrazolyl)phenyl]-2-imidazolidinone]
ED50 [1]: 0.8 mg/kg

C[C@@H](N1CCN(c2ccc(-n3ccnn3)cc2)C1=O)[C@](O)(Cn1cncn1)c1ccccc1F [Compound 34, [(1R,2R)-2-(2-fluorophenyl)-2-hydroxy-1-methyl-3-(1H-1,2,4-triazol-1-yl)propyl]-3-[4-(1H-1,2,3-triazol-1-yl)phenyl]-2-imidazolidinone]
ED50 [1]: 0.8 mg/kg

C[C@@H](n1ncn(-c2ccc(-n3nccn3)cc2)c1=O)[C@](O)(Cn1cncn1)c1ccc(F)cc1F [Compound 7, 2-[(1R,2R)-2-(2,4-difluorophenyl)-2-hydroxy-1-methyl-3-(1H-1,2,4-triazol-1-yl)propyl]-4-(4-(2H-1,2,3-triazol-2-yl)phenyl]-3(2H,4H)-1,2,4-triazolone]
melting point: 213 to 215 °C
ED50 [1]: 0.096 mg/kg

1-[(1R,2R)-2-(2,4-difluorophenyloy)-2-hydroxy-1-methyl-3-(1H-1,2,4-triazol-1-yl)propyl]-3-[4-(2H-1,2,3-triazol-2-yl)phenyl]-2-imidazolidinone [Compound 14]
ED50 (mg/kg) PO [1]: 0.32 mg/kg

C[C@@H](N1CCN(c2ccc(-n3cnnn3)cc2)C1=O)[C@](O)(Cn1cncn1)c1ccccc1F [Compound 45, 1-[(1R,2R)-2-(2-fluorophenyl)-2-hydroxy-1-methyl-3-(1H-1,2,4-triazol-1-yl)propyl]-3-[4-(1H-1-tetrazolyl)phenyl]-2-imidazolidinone]
ED50 [1]: 0.45 mg/kg

C[C@@H](n1ccn(-c2ccc(-n3ncnn3)cc2)c1=O)[C@](O)(Cn1cncn1)c1ccccc1F [Compound 40, 1-[(1R,2R)-2-(2-fluorophenyl)-2-hydroxy-1-methyl-3-(1H-1,2,4-triazol-1-yl)propyl]-3-[4-(2H-2-tetrazolyl)phenyl]-2(1H,3H)-imidazolone]
ED50 [1]: 0.35 mg/kg

C[C@@H](n1ccn(-c2ccc(-n3ncnn3)cc2)c1=O)[C@](O)(Cn1cncn1)c1ccc(F)cc1F [Compound 26, 1-[(1R,2R)-2-(2,4-difluorophenyl)-2-hydroxy-1-methyl-3-(1H-1,2,4-triazol-1-yl)propyl]-3-[4-(2H-2-tetrazolyl)phenyl]-2(1H,3H)-imidazolone]
ED50 [1]: 0.16 mg/kg

C[C@@H](n1ccn(-c2ccc(-n3cncn3)cc2)c1=O)[C@](O)(Cn1cncn1)c1ccccc1F [Compound 38, 1-[(1R,2R)-2-(2-fluorophenyl)-2-hydroxy-1-methyl-3-(1H-1,2,4-triazol-1-yl)propyl]-3-[4-[1H-1,2,4-triazol-1-yl)phenyl]-2(1H,3H)-imidazolone]
ED50 [1]: 0.5 mg/kg

1-[(1R,2R)-2-(2,4-difluorophenyl)-2-hydroxy-1-methyl-3-(1H-1,2,4-triazol-17 yl)propyl]-3-[4-(1H-1,2,4-triazol-1-yl)phenyl]-2-imidazolidinone [Compound 10]
ED50 (mg/kg) PO [1]: 0.32 mg/kg

C[C@@H](N1CCN(c2ccc(-n3ncnn3)cc2)C1=O)[C@](O)(Cn1cncn1)c1ccc(F)cc1F [Compound 27, 1-[(1R,2R)-2-(2,4-difluorophenyl)-2-hydroxy-1-methyl-3-(1H-1,2,4-triazol-1-yl)propyl]-3-[4-(2H-2-tetrazolyl)phenyl]-2-imidazolidinone]
ED50 [1]: 0.18 mg/kg

1-[(1R,2R)-2-(2-fluorophenyl)-2:-hydroxy-1-methyl-3-(1H-1,2,4-triazol-1-yl)propyl]-3-[4-(1H-1-tetrazolyl)phenyl]-2(1H,3H)-imidazolone [Compound 44]
ED50 (mg/kg) PO [1]: 0.39 mg/kg

C[C@@H](N1CCN(c2ccc(-n3ccnn3)cc2)C1=O)[C@](O)(Cn1cncn1)c1ccc(F)cc1F [Compound 12, 1-[(1R,2R)-2-(2,4-difluorophenyl)-2-hydroxy-1-methyl-3-(1H-1,2,4-triazol-1-yl)propyl]-3-[4-(1H-1,2,3-triazol-1-yl)phenyl]-2-imidazolidinone]
ED50 [1]: 0.71 mg/kg

C[C@@H](N1CCN(c2ccc(-n3cnnn3)cc2)C1=O)[C@](O)(Cn1cncn1)c1ccc(F)cc1F [Compound 43, 1-[(1R,2R)-2-(2,4— difluorophenyl)-2-hydroxy-1-methyl-3-(1H-1,2,4-triazol-1-yl)propyl]-3-[4-(1H-1-tetrazolyl)phenyl]-2-imidazolidinone]
ED50 [1]: 0.89 mg/kg

C[C@@H](n1ncn(-c2ccc(-n3ccnn3)cc2)c1=O)[C@](O)(Cn1cncn1)c1ccc(F)cc1F [Compound 6, 2-[(1R,2R)-2-(2,4-difluorophenyl)-2-hydroxy-1-methyl-3-(1H-1,2,4-triazol-1-yl)propyl]-4-[4-(1H-1,2,3-triazol-1-yl)phenyl]-3(2H,4H)-1,2,4-triazolone]
melting point: 219 to 220 °C
ED50 [1]: 0.35 mg/kg

— patent US6362206B1, “Azole compounds, their production and use” (Takeda Chemical Industries, Ltd., priority 1995, dated 2002)
